The values below come from patent US8937091B2 (Japan Science and Technology Agency, priority 2009, dated 2015).

The test system of assay [1] is SOCE (store operated calcium entry) in CHO cells. Briefly: Assay of SOCE (store operated calcium entry)-inhibiting action. It is filed as cell-based, Chinese hamster. The conditions noted are these: CHO cells, thapsigargin; for inhibition at 10 µM / inhibition at 30 µM / inhibition at 100 µM: Cricetulus griseus, CHO, read-out: SOCE level (percentage of inhibition). As for the experimental part:
The extracellular fluid (i.e., medium) of cultured Chinese hamster ovary (CHO) cells was replaced by BSS containing no calcium. One minute later, a test compound was added. Two minutes later, 1 μM thapsigargin was added to cause depletion of the intracellular calcium store. Nine minutes later, calcium chloride (final concentration: 2 mM) was added to the extracellular fluid. The SOCE-inhibiting action levels at different compound concentrations after the addition of calcium chloride were determined as the percentage of inhibition (%) by evaluating the influence of the compound on the degree of increase in the intracellular calcium concentration.
(§1) Hereafter, the numerals in parentheses written after the TG level, the SOCE level, and the IICR level correspond to the test compound concentrations. The number following the name of each title compound used in the Examples below represents a compound ID number designated arbitrarily by the present inventors.

In assay [2] the test system is IICR (IP3 induced calcium release) in CHO cells. The assay can be described thus: Assay of IICR (IP3 induced calcium release)-inhibiting action. It is filed as cell-based, Chinese hamster. The conditions noted are these: CHO cells, 10 μM ATP; for inhibition at 10 µM / inhibition at 30 µM / inhibition at 100 µM: Cricetulus griseus, CHO, read-out: IICR level (percentage of inhibition); for inhibition at 30 µM: test compound 30 μmol; for inhibition at 100 µM: test compound 100 μmol. As for the experimental part:
The extracellular fluid (i.e., medium) of cultured CHO cells was replaced by BSS containing calcium. One minute later, a test compound was added. Two minutes later, 10 μM ATP was added. The IICR-inhibiting action levels at different compound concentrations after the addition of ATP were determined as the percentage of inhibition (%) by evaluating the influence of the compound on the degree of increase in the intracellular calcium concentration.
as §1

For orientation: inhibition means the drop in the measured response relative to a control, in per cent. Regarding `CC(C)(C)N(CCO)CCC(=O)c1ccncc1` [Example 30, 2-(N-t-butyl-2-hydroxyethyl)aminoethyl-4-pyridylketone], the inhibition at 10 µM was determined as 0% in assay [1] (test compound 10 μmol) and 20% in assay [2] (test compound 10 μmol). Besides, the inhibition at 30 µM is 0% in assay [1] (test compound 30 μmol) and 10% in assay [2]. In addition, the inhibition at 100 µM in assay [1] (test compound 100 μmol) turned out to be 0%; in assay [2], 10%.
As for `CN(CCC(=O)c1ccncc1)Cc1ccccc1` [Example 31, 2-(N-methylbenzyl)aminoethyl-4-pyridylketone], the inhibition at 10 µM came to 0% in assay [1] (test compound 10 μmol) and 40% in assay [2] (test compound 10 μmol). For the same compound, the inhibition at 30 µM in assay [1] (test compound 30 μmol) was determined as 0%; in assay [2], 60%. Also, the inhibition at 100 µM in assay [1] (test compound 100 μmol) was 0%; in assay [2], 80%.
Regarding `CCCCN(CCO)CCC(=O)c1ccncc1` [Example 51, 2-(N-hydroxyethylbutyl)aminoethyl-4-pyridylketone], the inhibition at 10 µM in assay [1] (test compound 10 μmol) and in assay [2] (test compound 10 μmol) was 0% in each case. Moreover, the inhibition at 30 µM in assay [1] (test compound 30 μmol) turned out to be 0%; in assay [2] it was 20%. Moreover, the inhibition at 100 µM in assay [1] (test compound 100 μmol) turned out to be 0%; in assay [2] it was 100%.
Turning to `CC(C)N(CCO)CCC(=O)c1ccsc1` [Example 56, 2-(hydroxyethylisopropyl)aminoethyl-3-thiophenylketone], the inhibition at 10 µM in assay [1] (test compound 10 μmol) and in assay [2] (test compound 10 μmol) was 0% throughout. In addition, the inhibition at 30 µM in assay [1] (test compound 30 μmol) and in assay [2] was 0% throughout. Also, the inhibition at 100 µM is 0% in assay [1] (test compound 100 μmol) and 50% in assay [2].
`CC(C)N(CCC(=O)c1ccc(Cc2ccccc2)cc1)Cc1ccccc1` [Example 64, 2-(N-isopropylbenzyl)aminoethyl-4-benzylphenylketone]: the “SOCE level (percentage of inhibition)” value in assay [1] (test compound 10 μmol) came to 0%; in assay [1] (test compound 30 μmol), 0%; in assay [1] (test compound 100 μmol), 30%. The inhibition at 30 µM in assay [2] came out at 70%. Besides, the inhibition at 100 µM in assay [2] came to 96%. Moreover, in assay [2] (test compound 10 μmol), the “IICR level (percentage of inhibition)” value was 50%.
On to `Cc1ccc(C(=O)CCN(Cc2ccccc2)C(C)C)cc1` [Example 65, 2-(N-isopropylbenzyl)aminoethyl-4-methylphenylketone], for which the inhibition at 10 µM came to 0% in assay [1] (test compound 10 μmol) and 30% in assay [2] (test compound 10 μmol). In addition, the inhibition at 30 µM in assay [1] (test compound 30 μmol) came out at 0%; in assay [2] it was 10%. The inhibition at 100 µM in assay [1] (test compound 100 μmol) and in assay [2] was 30% in each case.
Take `CC(C)N(CCC(=O)c1ccc2ccccc2c1)Cc1ccccc1` [Example 66, 2-(N-isopropylbenzyl)aminoethyl-2-naphthylketone]: the inhibition at 10 µM in assay [1] (test compound 10 μmol) came to 0%; in assay [2] (test compound 10 μmol), 10%. The inhibition at 30 µM in assay [1] (test compound 30 μmol) amounted to 0%; in assay [2], 10%. Also, the figures for the inhibition at 100 µM in assay [1] (test compound 100 μmol) and in assay [2] were 0% and 70%, respectively.
Regarding `C=CC(=O)c1cccc2ccccc12` [Example 68, 1-acryloylnaphthalene], the inhibition at 10 µM in assay [1] (test compound 10 μmol) stood at 0%; in assay [2] (test compound 10 μmol) it was 80%. The inhibition at 30 µM in assay [1] (test compound 30 μmol) came out at 10%; in assay [2] it was 90%. Further, the figures for the inhibition at 100 µM in assay [1] (test compound 100 μmol) and in assay [2] were 70% and 95%, respectively.
Regarding `CC(C)N(CCC(=O)c1ccccc1)Cc1ccccc1` [Example 69, 2-(isopropylbenzyl)aminoethylphenylketone], the inhibition at 10 µM in assay [1] (test compound 10 μmol) is 0%; in assay [2] (test compound 10 μmol), 20%. Moreover, the inhibition at 30 µM is 10% in assay [1] (test compound 30 μmol) and 20% in assay [2]. The inhibition at 100 µM was 20% in assay [1] (test compound 100 μmol) and 90% in assay [2].
Consider `O=C(CCN(c1ccccc1)c1ccccc1)c1cccc2ccccc12` [Example 70, 2-N-diphenylaminoethyl naphthylketone], for which the inhibition at 10 µM in assay [1] (test compound 10 μmol) is 0%; in assay [2] (test compound 10 μmol), 10%. Further, the inhibition at 30 µM stood at 10% in assay [1] (test compound 30 μmol) and 0% in assay [2]. In addition, the inhibition at 100 µM in assay [1] (test compound 100 μmol) stood at 20%; in assay [2], 40%.
`CN(CCC(=O)c1ccc2ccccc2c1)Cc1ccccc1` [Example 71, 2-(N-methylbenzyl)aminoethyl naphthylketone]: the inhibition at 10 µM in assay [1] (test compound 10 μmol) and in assay [2] (test compound 10 μmol) was 0% each time. In addition, the inhibition at 30 µM in assay [1] (test compound 30 μmol) was found to be 0%.
On to `COc1ccc(C(=O)CCN(Cc2ccccc2)C(C)C)cc1` [Example 72, 2-(N-isopropylbenzyl)aminoethyl-4-methoxyphenylketone], for which the inhibition at 10 µM in assay [1] (test compound 10 μmol) was found to be 0%; in assay [2] (test compound 10 μmol), 20%. The inhibition at 30 µM in assay [1] (test compound 30 μmol) stood at 10%; in assay [2] it was 20%. For the same compound, the inhibition at 100 µM in assay [1] (test compound 100 μmol) worked out at 20%; in assay [2] it was 70%.
Turning to `CC(C)N(CCC(=O)c1ccccn1)Cc1ccccc1` [Example 73, 2-(N-isopropylbenzyl)aminoethyl-2-pyridylketone], the inhibition at 10 µM in assay [1] (test compound 10 μmol) worked out at 0%; in assay [2] (test compound 10 μmol), 70%. The inhibition at 30 µM in assay [1] (test compound 30 μmol) came to 0%; in assay [2], 100%. For the same compound, the inhibition at 100 µM in assay [1] (test compound 100 μmol) was 10%; in assay [2], 90%.
For `CN(CCC(=O)c1cccc2ccccc12)Cc1ccccc1` [Example 74, 2-(N-methylbenzyl)aminoethyl-1-naphthylketone], the figures for the inhibition at 10 µM in assay [1] (test compound 10 μmol) and in assay [2] (test compound 10 μmol) were 0% and 30%, respectively. Moreover, the inhibition at 30 µM is 10% in assay [1] (test compound 30 μmol) and 50% in assay [2]. Also, the inhibition at 100 µM was determined as 30% in assay [1] (test compound 100 μmol) and 70% in assay [2].
For the compound `O=C(CCN(c1ccccc1)c1ccccc1)c1ccc2ccccc2c1` [Example 75, 2-(N-diphenyl)aminoethyl-2-naphthylketone], the inhibition at 10 µM in assay [1] (test compound 10 μmol) and in assay [2] (test compound 10 μmol) was 0% each time. Moreover, the inhibition at 30 µM in assay [1] (test compound 30 μmol) and in assay [2] was 0% each time. In addition, the inhibition at 100 µM in assay [1] (test compound 100 μmol) and in assay [2] was 0% in each case.
As for `COc1ccc(C(=O)CCN(C)Cc2ccccc2)cc1` [Example 76, 2-(N-methylbenzyl)aminoethyl-4-methoxyphenylketone], the inhibition at 10 µM in assay [1] (test compound 10 μmol) and in assay [2] (test compound 10 μmol) was 0% throughout. For the same compound, the inhibition at 30 µM in assay [1] (test compound 30 μmol) and in assay [2] was 10% each time. For the same compound, the inhibition at 100 µM is 20% in assay [1] (test compound 100 μmol) and 30% in assay [2].
Turning to `CN(CCC(=O)c1ccccn1)Cc1ccccc1` [Example 77, 2-(N-methylbenzyl)aminoethyl-2-pyridylketone], the inhibition at 10 µM in assay [1] (test compound 10 μmol) and in assay [2] (test compound 10 μmol) was 0% in each case. Also, the inhibition at 30 µM worked out at 20% in assay [1] (test compound 30 μmol) and 10% in assay [2]. Besides, the inhibition at 100 µM in assay [1] (test compound 100 μmol) and in assay [2] was 30% throughout.
For `Cc1cccc2cc(C(=O)CCN(C)Cc3ccccc3)ccc12` [Example 78, 2-(N-methylbenzyl)aminoethyl-5-methyl-2-naphthylketone], the inhibition at 10 µM in assay [1] (test compound 10 μmol) was found to be 10%; in assay [2] (test compound 10 μmol) it was 20%. The values for the inhibition at 30 µM in assay [1] (test compound 30 μmol) and in assay [2] were 20% and 70%, respectively. The results for the inhibition at 100 µM in assay [1] (test compound 100 μmol) and in assay [2] were 50% and 90%, respectively.
